Numbered stars: 1 amine (or outer) side, 2 acyl side, 3 side chain; on linkers, the order of the positions; unused ones are H or OH. Square brackets hold non-standard residues; d marks the D form. Peptide text beside a SMILES is read from it. ξ: configuration not given here. X1 = CSCC[C@H](NC(=N)[C@H](Cc1c[nH]cn1)N[*:1])C(=O)[*:2]; pS = N[C@@H](COP(=O)(O)O)C(=O)O; Ile(3ξ) = CCC(C)[C@H](N)C(=O)O
Tests used:
MRL/lpr mice = experiment: Survival analysis in MRL/lpr mice; type: in vivo, mouse; conditions: female MRL/lpr mice, peptide intravenously from five weeks of age; NaCl control 25 weeks
Experimental: It has been determined that this mouse strain carries a mutation in the fas gene. Also, the MRL/lpr is a useful model to study behavioural and cognitive deficits found in autoimmune diseases and the efficacy of immunosuppressive agents [Monneaux et al., 2003, Eur. J. Immunol. 33, 287-296].
Five-week-old female MRL/lpr mice received P140 or peptide P140(MO) intravenously as described (Monneaux et al., 2003, Eur. J. Immunol. 33, 287-296). All experimental protocols were carried out with the approval of the local Institutional Animal Care and Use Committee (CREMEAS). As control, mice were injected with NaCl.
Twenty mice were used for each peptide or NaCl.
Statistical tests were performed using GraphPad Prism version 5.0. The two-way ANOVA test was used to analyze statistical significance of proteinuria differences between control and peptide-treated groups of mice. Survival of control and P140 analogue-treated female MRL/lpr mice was analyzed by the Kaplan-Meier method, and the significance of differences was determined by the log-rank test. For the other variables, statistical significance was assessed using the Student's t-test. p values less than 0.05 were considered significant.

CD4+ T splenocytes = experiment: Collagen-induced arthritis (CIA) mouse model, ex vivo T splenocyte proliferation; type: in vivo; conditions: DBA/1 CIA mice, peptide i.v. day −1, +7, +14, +20; 100 μg CII/mL, CFSE assay by FACS
Experimental: Next, P140 peptide was administered in a model of mice that develop a RA-like disease (we anticipated to use this mouse model as a negative control of MRL/lpr-lupus prone mice). This model, called collagen-induced arthritis (CIA) mouse model, is the most commonly studied autoimmune model of RA. In this model, autoimmune arthritis is induced by immunizing DBA/1 mice with an emulsion of complete Freund's adjuvant (CFA) and type II collagen (CII), and typically, the first signs of arthritis appear in 21-28 days after immunization (Brand et al., 2007). CIA shares several pathological features with human RA, and CII is a major protein in cartilage, the target tissue of RA. Pathological features include synovial hyperplasia, mononuclear cell infiltration, and cartilage degradation. Susceptibility in these mice is linked to the expression of specific MHC class II genes, DBA/1 have H-2^q haplotype.
P140 peptide was thus administrated intravenously to DBA/1 mice at day −1, +7, +14 and +20 in a setting close to the one we used in MRL/lpr mice ([…]). CII in CFA was injected at days+1 and +21 (200 μg, intradermal route). Mouse weight and their clinical score were followed using very classical procedure. Biological parameters were also evaluated (i.e. T cell response, antibody response, joint histology, etc).

Lewis rats = experiment: Chronic-EAN rat model for CIDP; type: in vivo; conditions: P140 100 μg/rat i.p., vs untreated rats
Experimental: Male Lewis rats, 7-8 weeks old, weighing 250-270 g, purchased from Charles River (Domaine des Oncins, L'Arbresle, France) were used. To induce chronic-EAN (CIDP), rats were immunized with S-palm-P0(180-199) peptide by subcutaneous injection at the base of the tail of 200 μL of an inoculum containing 200 μg of peptide (Ac(palm)KRGRQTPVLYAMLDHSRS), and 0.5 mg of Mycobacterium tuberculosis (strain H37 RA, Difco, Detroit, Mich., USA) emulsified in 100 μL of saline solution and 100 μL of Freund's incomplete adjuvant (SIGMA-Aldrich, St-Quentin Fallavier, France).
Body weight and clinical scores are assessed daily until 60 days post-immunization (dpi). Severity of paresis is graded as follows: 0=no illness; 1=flaccid tail; 2=moderate paraparesis; 3=severe paraparesis; 4=tetraparesis; 5=death.
100 μg/rat P140 peptide in 500 μL water/saline (1:10) were intraperitoneally injected at 5, 7, 9, 13 dpi and 3 times per week from 22 dpi until the end of the study.

SLE patients = experiment: Clinical trial in SLE patients (SRI-4 response); type: in vivo, human
Experimental: Human patients with SLE were administered the “standard of care” for SLE+placebo or SEQ ID NO.:1 (serine 10 phosphorylated) (“P140”). The P140 peptide was administered in a solution with mannitol; the placebo was a mannitol solution only. Patients were treated for 52 weeks.
Based on the protocol and the commonly accepted study design, there were two groups of patients: (1) patients receiving P140 plus “Standard of Care” and (2) patients receiving placebo plus “Standard of Care”. “Standard of Care” includes treatment with other drugs such as steroids, anti-malarials, methotrexate etc. No patients were treated just with placebo, but all were receiving other drug treatments. The definition of a “responder” is based on the SLE Responder Index (SRI-4) score, which requires a reduction of at least four points in this score. Therefore, patients who improve by less than four points are counted as non-responders, but also no distinction is made between patients who improve by more than 4 points, all being equal “responders”.
The SRI-4 score comprises criteria from three different internationally validated indices, SELENA-SLE Disease Activity Index (SELENA-SLEDAI), Physician Global Assessment (PGA) and the British Isles Lupus Assessment Group (BILAG) 2004. See Luijten, K. M. et al., Autoimmun Rev. 2012 March; 11(5):326-9.

[1] = system: peripheral T cells from lupus patients; conditions: cited from earlier work

CCC(C)[C@H](NC(=O)[C@H](Cc1ccccc1)NC(=O)[C@H](C)NC(=O)[C@H](Cc1ccc(O)cc1)NC(=O)CNC(=O)[C@H](CCCNC(=N)N)NC(=O)[C@@H]1CCCN1C(=O)[C@H](CCCCN)NC(=O)CNC(=O)[C@H](COP(=O)(O)O)NC(=O)[C@H](CCCNC(=N)N)NC(=O)[C@H](CCCCN)NC(=O)[C@H](CO)NC(=O)[C@H](Cc1ccc(O)cc1)NC(=O)[C@@H](NC(=O)[C@H](CCSC)NC(=N)[C@H](Cc1c[nH]cn1)NC(=O)[C@@H](NC(=O)[C@@H](N)CCCNC(=N)N)C(C)CC)C(C)C)C(=O)N[C@@H](CCC(=O)O)C(=O)N[C@@H](Cc1ccc(O)cc1)C(=O)O (stereo partly drawn) [Compound P140] (H-R[Ile(3ξ)][X1]VYSKR[pS]GKPRGYAF[Ile(3ξ)]EY-OH)
Median survival of mice (MRL/lpr mice): 29 weeks | CD4+ T splenocytes proliferation ex vivo in the presence of CII (CD4+ T splenocytes): strongly diminished | Chronicity of the disease (Lewis rats): seems abolish the chronicity of the disease | Maximal clinical scores (Lewis rats): decreased the maximal clinical scores | Onset of the disease (Lewis rats): delayed the onset of the disease | Weight loss during the disease course (Lewis rats): less important | Response rate (SRI-4) (SLE patients; Anti dsDNA+ European study population, placebo 48.8%): 71.1% | Response rate (SRI-4) (SLE patients; Anti dsDNA+ patients, full study population, 52 weeks, plus standard of care, placebo 47.3%): 61.5% | Patients in full remission (SLE patients; Anti dsDNA+ patients, none in the placebo group): 7.6% | Tolerability (SLE patients; SLE patients, 52 weeks): well tolerated | Proliferation of peripheral T cells from lupus patients ([1]; ex vivo (Monneaux et al., 2005)): does not induce proliferation | Secretion of regulatory cytokine IL-10 in cell cultures ([1]; ex vivo, T cells from lupus patients (Monneaux et al., 2005)): high levels
